We go through seven molecules from patent US10689365B2, “Substituted 2-alkylimidazolylcarboxamides as pesticides” (Bayer CropScience Aktiengesellschaft, priority 2016, dated 2020).

Data set [1] deals with Myzus persicae. Kind of data set: Myzus persicae - spray test (Chinese cabbage leaf discs). Type of data set: in vivo. As to conditions: Myzus persicae, foliar; application rate 500 g/ha, after 5-6 days; read-out: efficacy. In outline: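 Chinese cabbage leaf discs carrying all aphid stages were sprayed with compound dissolved in acetone/dimethylformamide and diluted in water with 1000 ppm alkylaryl polyglycol ether emulsifier. Efficacy was recorded after 5-6 days as % aphids killed (100% = all, 0% = none).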

For data set [2], the system named is Myzus persicae. Kind of data set: Myzus persicae - oral test. It is filed as in vivo. Conditions: Myzus persicae, po, 120 h; application rate 20 ppm, after 5 days; read-out: efficacy. In outline: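 Aphid feeding test: compound dissolved in acetone, diluted with water and mixed with IPL41 insect medium plus sugar, offered through parafilm to a mixed population of green peach aphids. Mortality scored after 5 days as % efficacy (100% = all aphids dead, 0% = none dead).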

Data set [3] deals with Myzus persicae. Kind of data set: Myzus persicae - spray test (MYZUPE), Chinese cabbage leaf discs. Type of data set: in vivo. Conditions: foliar; for percent efficacy (aphid mortality) at 100 g/ha: 100 g of ai/ha; for percent efficacy (aphid mortality) at 20 g/ha: 20 g of ai/ha. Here is the method: Myzus persicae—Spray Test (MYZUPE)
Solvent: 78.0 parts by weight of acetone • • 1.5 parts by weight of dimethylformamide
(§1) Emulsifier: alkylaryl polyglycol ether
To produce a suitable active compound preparation, 1 part by weight of active compound is dissolved using the stated parts by weight of solvent and made up with water containing an emulsifier concentration of 1000 ppm until the desired concentration is attained. To produce further test concentrations, the formulation is diluted with emulsifier-containing water.
Discs of Chinese cabbage leaves (Brassica pekinensis) infested by all stages of the green peach aphid (Myzus persicae) are sprayed with an active compound preparation of the desired concentration.
(§2) After the desired period of time, the efficacy in % is determined. 100% means that all the aphids have been killed; 0% means that no aphids have been killed.

For data set [4], the system named is Myzus persicae. Description: Myzus persicae - oral test (MYZUPE O). As to conditions: read-out: % efficacy. It is filed as in vivo. The procedure: Myzus persicae—Oral Test (MYZUPE O)
Solvent: 100 parts by weight of acetone
To produce a suitable preparation of active compound, 1 part by weight of active compound is dissolved using the specified parts by weight of solvent and made up with water until the desired concentration is attained.
50 μl of the active compound preparation are transferred into microtitre plates and made up to a final volume of 200 μl with 150 μl of IPL41 insect medium (33%+15% sugar). Subsequently, the plates are sealed with parafilm, which a mixed population of green peach aphids (Myzus persicae) within a second microtitre plate is able to puncture and imbibe the solution through it.
as §2

For data set [5], the system named is Myzus persicae. Kind of data set: Myzus persicae - spray test (MYZUPE S), bell pepper plants. It is filed as in vivo. Conditions: 144 h, 6 dat, read-out: % efficacy. Here is the method: Myzus persicae—Spray Test (MYZUPE S)
(§3) Solvent: 14 parts by weight of dimethylformamide
as §1
To produce a suitable active compound preparation, 1 part by weight of active compound is dissolved with the specified parts by weight of solvent and made up with water containing an emulsifier concentration of 1000 ppm until the desired concentration is attained. To produce further test concentrations, the formulation is diluted with emulsifier-containing water. If the addition of ammonium salts or/and penetrants is required, these are each added in a concentration of 1000 ppm to the formulation solution.
Bell pepper plants (Capsicum annuum) severely infested with the green peach aphid (Myzus persicae) are treated by spraying with the active ingredient formulation in the desired concentration.
After the desired time, the kill in % is determined. 100% means that all the animals have been killed; 0% means that no animals have been killed.

Data set [6] has as its system Myzus persicae. Description: Myzus persicae - drench test (MYZUPE D), Savoy cabbage in soil. It is filed as in vivo. As to conditions: 240 h, 10 dat, read-out: % efficacy. The procedure: Myzus persicae—Drench Test (MYZUPE D)
To produce a suitable active compound preparation, 1 part by weight of active compound is mixed with the specified amounts of solvent and emulsifier, and the concentrate is diluted with water to the desired concentration, it being necessary to include the volume of soil which is drenched in the calculation. It should be ensured that a concentration of 40 ppm of emulsifier in the soil is not exceeded. To produce further test concentrations, water is used for dilution.
Savoy cabbage (Brassica oleracea) in pots with soil and infested by all stages of the green peach aphid (Myzus persicae) is watered with an active compound preparation of the desired concentration.
as §2

Another data set concerns Aphis gossypii. Description: Aphis gossypii - spray test (APHIGO S), cotton plants. It is filed as in vivo. As to conditions: 144 h, 6 dat, read-out: % efficacy. Here is the method: Aphis gossypii—Spray Test (APHIGO S)
as §3, §1
To produce a suitable active compound preparation, 1 part by weight of active compound is dissolved using the stated parts by weight of solvent and made up with water containing an emulsifier concentration of 1000 ppm until the desired concentration is attained. To produce further test concentrations, the formulation is diluted with emulsifier-containing water. If the addition of ammonium salts or/and penetrants is required, these are each added in a concentration of 1000 ppm to the formulation solution.
Cotton plants (Gossypium hirsutum) heavily infested by the cotton aphid (Aphis gossypii) are sprayed with an active ingredient formulation of the desired concentration.
After the desired time, the kill in % is determined. 100% means that all the aphids have been killed; 0% means that no aphids have been killed.

Data set [7] can be described thus: log P by HPLC on reversed-phase (C18) columns, OECD Guideline 117. It is filed as physicochemical. Conditions: reversed-phase (C18) HPLC column. The method in brief:
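Reversed-phase C18 HPLC per OECD 117, LC-MS with a linear 10% to 95% acetonitrile gradient. Acidic method at pH 2.7 with 0.1% formic acid; neutral method at pH 7.8 with 0.001 M ammonium hydrogencarbonate.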

Where [8] appears, read: acidic range, pH 2.7, 0.1% aqueous formic acid/acetonitrile, read-out: logP[a].
[9] abbreviates: neutral range, pH 7.8, aqueous ammonium hydrogencarbonate/acetonitrile, read-out: logP[n].

Like-named read-outs stand apart in the source and are kept apart here.

Regarding `CC(C)CS(=O)(=O)Cc1ncc(C(=O)N(C)c2cccnc2)n1C` [Example I-1-32], in the data set with Myzus persicae [1], the pest or weed control at 500 g/ha was found to be 90%. For the same molecule, the pest or weed control at 20 ppm in the data set on Myzus persicae [2] is 100%. For the same molecule, the percent efficacy (aphid mortality) at 100 g/ha in the data set on Myzus persicae [3] (120 h, 5 dat) came to 70%. The Emax at 4 ppm was found to be 100% in the data set with Myzus persicae [4] (120 h, 5 dat) and 97% in the data set with Aphis gossypii (4 ppm). The Emax at 0.16 ppm with Myzus persicae [5] and with Myzus persicae [6] was 98% each time. Moreover, the Emax at 0.8 ppm with Aphis gossypii (0.8 ppm) turned out to be 98%. Also, the chromatographic logP was determined as 1.05 in data set [7] (setting [8]) and 1.26 in data set [7] (setting [9]).

Consider `CN(C(=O)c1cnc(CS(=O)(=O)C(C)(C)C)n1C)c1cccnc1` [Example I-1-34], for which the pest or weed control at 500 g/ha with Myzus persicae [1] was found to be 100%. Besides, the pest or weed control at 20 ppm in the data set on Myzus persicae [2] was determined as 100%. The same molecule showed a percent efficacy (aphid mortality) at 20 g/ha in the data set with Myzus persicae [3] (120 h, 5 dat) of 90%. Moreover, the percent efficacy (aphid mortality) at 100 g/ha with Myzus persicae [3] (120 h, 5 dat) came to 90%. Also, the Emax at 4 ppm amounted to 100% in the data set with Myzus persicae [4] (120 h, 5 dat) and 95% with Aphis gossypii (4 ppm). The Emax at 0.16 ppm in the data set on Myzus persicae [5] came to 45%; with Myzus persicae [6], 90%. In addition, the Emax at 0.8 ppm with Aphis gossypii (0.8 ppm) was found to be 85%. In addition, the chromatographic logP was determined as 0.75 in data set [7] (setting [8]) and 1.03 in data set [7] (setting [9]).

On to `CN(C(=O)c1cnc(CSCC2CC2)n1C)c1cccnc1` [Example I-1-35], for which the pest or weed control at 500 g/ha in the data set with Myzus persicae [1] was found to be 100%. Further, the pest or weed control at 20 ppm in the data set with Myzus persicae [2] was found to be 100%. Further, the percent efficacy (aphid mortality) at 20 g/ha in the data set with Myzus persicae [3] (120 h, 5 dat) stood at 90%. This molecule had a percent efficacy (aphid mortality) at 100 g/ha with Myzus persicae [3] (120 h, 5 dat) of 90%. Further, the Emax at 4 ppm with Myzus persicae [4] (120 h, 5 dat) was found to be 100%; with Aphis gossypii (4 ppm) it was 100%. Moreover, the Emax at 0.16 ppm with Myzus persicae [5] was 100%; in the data set on Myzus persicae [6], 98%. Besides, in the data set on Aphis gossypii (0.8 ppm), the Emax at 0.8 ppm was found to be 99%. Moreover, the chromatographic logP was found to be 0.96 in data set [7] (setting [8]) and 1.57 in data set [7] (setting [9]).

As to `CN(C(=O)c1cnc(CSCC(C)(C)C)n1C)c1cccnc1` [Example I-1-36], the pest or weed control at 500 g/ha in the data set with Myzus persicae [1] came to 90%. Moreover, the pest or weed control at 20 ppm in the data set on Myzus persicae [2] worked out at 100%. Further, the percent efficacy (aphid mortality) at 20 g/ha in the data set with Myzus persicae [3] (120 h, 5 dat) was found to be 90%. The molecule also came in with a percent efficacy (aphid mortality) at 100 g/ha with Myzus persicae [3] (120 h, 5 dat) of 90%. Also, the Emax at 4 ppm in the data set with Myzus persicae [4] (120 h, 5 dat) stood at 100%; with Aphis gossypii (4 ppm), 98%. Further, the Emax at 0.16 ppm in the data set with Myzus persicae [5] was 75%; with Myzus persicae [6], 80%. Also, the Emax at 0.8 ppm with Aphis gossypii (0.8 ppm) worked out at 98%. Besides, the figures for the chromatographic logP in data set [7] (setting [8]) and in data set [7] (setting [9]) were 1.42 and 2.06, respectively.

Regarding `CN(C(=O)c1cnc(Cn2nccn2)n1C)c1cccnc1` [Example I-1-47], the pest or weed control at 500 g/ha in the data set with Myzus persicae [1] was 100%. The pest or weed control at 20 ppm with Myzus persicae [2] was found to be 100%. Further, the percent efficacy (aphid mortality) at 100 g/ha in the data set with Myzus persicae [3] (144 h, 6 dat) was found to be 90%. Also, the Emax at 4 ppm in the data set on Myzus persicae [4] (144 h, 6 dat) was found to be 100%; in the data set on Aphis gossypii (4 ppm), 100%. Besides, the Emax at 0.16 ppm with Myzus persicae [5] and in the data set on Myzus persicae [6] was 90% throughout. In addition, the Emax at 0.8 ppm in the data set with Aphis gossypii (0.8 ppm) stood at 100%. The chromatographic logP came out at 0.35 in data set [7] (setting [8]) and 0.75 in data set [7] (setting [9]).

Turning to `CN(C(=O)c1cnc(CS(=O)(=O)CC2CC2)n1C)c1cccnc1` [Example I-1-48], the pest or weed control at 500 g/ha with Myzus persicae [1] is 100%. In addition, the pest or weed control at 20 ppm in the data set on Myzus persicae [2] was 100%. This molecule came in with a percent efficacy (aphid mortality) at 20 g/ha in the data set on Myzus persicae [3] (120 h, 5 dat) of 100%. In the data set with Myzus persicae [3] (120 h, 5 dat), this molecule gave a percent efficacy (aphid mortality) at 100 g/ha of 100%. In addition, the Emax at 4 ppm with Myzus persicae [4] (120 h, 5 dat) was 100%. For the same molecule, the Emax at 0.16 ppm with Myzus persicae [5] was 99%; with Myzus persicae [6] it was 90%. Moreover, in the data set on Aphis gossypii (0.8 ppm), the percent kill (mortality) of aphids at a fixed dose at 0.8 ppm was 100%. Moreover, the percent kill (mortality) of aphids at a fixed dose at 4 ppm in the data set with Aphis gossypii (4 ppm) was determined as 100%. Further, the values for the chromatographic logP in data set [7] (setting [8]) and in data set [7] (setting [9]) were 0.71 and 1.04, respectively.

Take `CCSCc1ncc(C(=O)N(CC)c2cccnc2)n1C` [Example I-1-49]: in the data set on Myzus persicae [1], the pest or weed control at 500 g/ha was determined as 90%. For the same molecule, in the data set on Myzus persicae [2], the pest or weed control at 20 ppm came to 100%. Besides, the percent efficacy (aphid mortality) at 20 g/ha in the data set with Myzus persicae [3] (120 h, 5 dat) was 70%. The percent efficacy (aphid mortality) at 100 g/ha in the data set with Myzus persicae [3] (120 h, 5 dat) amounted to 70%. The Emax at 4 ppm with Myzus persicae [4] (120 h, 5 dat) was determined as 100%; in the data set on Aphis gossypii (4 ppm) it was 100%. Further, the Emax at 0.16 ppm with Myzus persicae [5] and in the data set with Myzus persicae [6] was 95% in each case. Besides, the Emax at 0.8 ppm in the data set with Aphis gossypii (0.8 ppm) came out at 98%. In addition, the chromatographic logP in data set [7] (setting [8]) was 0.71.
